The values below are quoted from earlier work in US20260199368A1, “[…] SYSTEM CONTAINING REMIMAZOLAM” (LTS LOHMANN THERAPIE-SYSTEME AG, priority 2022, published 2026).

For this series the following is noted: intranasal administration; cited from earlier work.

Consider `COC(=O)CC[C@@H]1N=C(c2ccccn2)c2cc(Br)ccc2-n2c(C)cnc21` [remimazolam, methyl 3-{(4S)-8-bromo-1-methyl-6-(pyridin-2-yl)-4/-/-imidazo[1,2-a][1,4]benzodiazepin-4-yl}propanoate], for which the bioavailability entry is recorded as “about 50%”.
